What all share (assay): DSF 100 kinase selectivity screen;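 also: compound tested at 20 µM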
Holding throughout (type): binding

Test [1] addresses T1, ~100 representative kinases (Homo sapiens, UniProt P49759).
T1 construct: Recombinant protein kinase domains with a concentration of 2 μM
Particulars: Protein CLK1; average of three replicates. An outline of the steps:
(§1)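 Each kinase domain, at 2 μM, is mixed with 20 μM test compound and SYPRO Orange in Hepes (20 mM, pH 7.5) with 500 mM NaCl. Temperature is then raised at 3°C/min and fluorescence-monitored unfolding yields the melting temperature change, ΔTm in degrees Celsius.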

The target of test [2] is T2, ~100 representative kinases (Homo sapiens, UniProt P54764).
T2 construct: Recombinant protein kinase domains with a concentration of 2 μM
T2 sequence (P54764 20-986): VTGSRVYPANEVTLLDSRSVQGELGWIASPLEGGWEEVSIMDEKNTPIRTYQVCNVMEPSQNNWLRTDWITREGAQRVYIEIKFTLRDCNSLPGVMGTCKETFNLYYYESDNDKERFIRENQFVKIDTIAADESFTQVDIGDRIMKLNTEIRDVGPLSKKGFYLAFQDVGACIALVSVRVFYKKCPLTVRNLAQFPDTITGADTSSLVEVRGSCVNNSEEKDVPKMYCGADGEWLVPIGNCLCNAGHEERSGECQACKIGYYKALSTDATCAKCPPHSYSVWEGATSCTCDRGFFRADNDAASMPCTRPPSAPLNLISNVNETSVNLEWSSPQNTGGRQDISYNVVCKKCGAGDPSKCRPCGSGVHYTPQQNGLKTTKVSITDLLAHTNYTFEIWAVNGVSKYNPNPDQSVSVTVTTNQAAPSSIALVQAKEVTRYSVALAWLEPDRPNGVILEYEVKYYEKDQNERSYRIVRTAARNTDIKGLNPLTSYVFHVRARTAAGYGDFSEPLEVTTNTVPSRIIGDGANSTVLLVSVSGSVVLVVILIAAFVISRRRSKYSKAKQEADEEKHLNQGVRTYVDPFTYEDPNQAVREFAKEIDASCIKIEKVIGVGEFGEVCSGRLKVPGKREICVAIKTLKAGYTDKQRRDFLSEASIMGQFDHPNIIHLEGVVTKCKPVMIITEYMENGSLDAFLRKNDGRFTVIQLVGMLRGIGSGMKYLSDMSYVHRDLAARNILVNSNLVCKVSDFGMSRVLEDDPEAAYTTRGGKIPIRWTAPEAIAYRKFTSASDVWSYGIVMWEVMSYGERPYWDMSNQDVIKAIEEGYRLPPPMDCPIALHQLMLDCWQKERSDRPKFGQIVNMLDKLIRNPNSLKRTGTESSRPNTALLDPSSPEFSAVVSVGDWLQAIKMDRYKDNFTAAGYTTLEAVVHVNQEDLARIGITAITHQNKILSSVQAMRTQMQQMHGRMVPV
As to conditions: Protein EPHA4; average of three replicates. The essentials:
as §1

Test [3] deals with T3, ~100 representative kinases (Homo sapiens, UniProt Q92630).
T3 construct: Recombinant protein kinase domains with a concentration of 2 μM
T3 sequence (Q92630 1-601): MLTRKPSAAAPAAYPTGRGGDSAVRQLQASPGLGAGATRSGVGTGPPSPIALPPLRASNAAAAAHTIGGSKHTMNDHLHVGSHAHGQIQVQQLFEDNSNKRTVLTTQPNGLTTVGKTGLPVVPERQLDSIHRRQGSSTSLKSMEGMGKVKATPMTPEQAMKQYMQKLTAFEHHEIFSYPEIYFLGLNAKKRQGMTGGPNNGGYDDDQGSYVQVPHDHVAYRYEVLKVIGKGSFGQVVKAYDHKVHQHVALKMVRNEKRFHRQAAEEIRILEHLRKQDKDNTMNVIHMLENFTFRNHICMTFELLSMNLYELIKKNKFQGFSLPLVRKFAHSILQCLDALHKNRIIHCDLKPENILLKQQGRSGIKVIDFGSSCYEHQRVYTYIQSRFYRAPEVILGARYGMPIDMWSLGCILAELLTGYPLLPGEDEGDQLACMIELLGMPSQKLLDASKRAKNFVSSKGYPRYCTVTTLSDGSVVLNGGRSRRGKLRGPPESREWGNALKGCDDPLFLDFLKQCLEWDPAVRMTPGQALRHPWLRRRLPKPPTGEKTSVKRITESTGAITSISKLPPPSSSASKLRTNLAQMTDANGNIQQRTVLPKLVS
Particulars: Protein DYRK2; average of three replicates. An outline of the steps: as §1

The target of test [4] is T4, ~100 representative kinases (Homo sapiens, UniProt Q13554).
T4 construct: Recombinant protein kinase domains with a concentration of 2 μM
T4 sequence (Q13554 whole entry, the tested form may be a part): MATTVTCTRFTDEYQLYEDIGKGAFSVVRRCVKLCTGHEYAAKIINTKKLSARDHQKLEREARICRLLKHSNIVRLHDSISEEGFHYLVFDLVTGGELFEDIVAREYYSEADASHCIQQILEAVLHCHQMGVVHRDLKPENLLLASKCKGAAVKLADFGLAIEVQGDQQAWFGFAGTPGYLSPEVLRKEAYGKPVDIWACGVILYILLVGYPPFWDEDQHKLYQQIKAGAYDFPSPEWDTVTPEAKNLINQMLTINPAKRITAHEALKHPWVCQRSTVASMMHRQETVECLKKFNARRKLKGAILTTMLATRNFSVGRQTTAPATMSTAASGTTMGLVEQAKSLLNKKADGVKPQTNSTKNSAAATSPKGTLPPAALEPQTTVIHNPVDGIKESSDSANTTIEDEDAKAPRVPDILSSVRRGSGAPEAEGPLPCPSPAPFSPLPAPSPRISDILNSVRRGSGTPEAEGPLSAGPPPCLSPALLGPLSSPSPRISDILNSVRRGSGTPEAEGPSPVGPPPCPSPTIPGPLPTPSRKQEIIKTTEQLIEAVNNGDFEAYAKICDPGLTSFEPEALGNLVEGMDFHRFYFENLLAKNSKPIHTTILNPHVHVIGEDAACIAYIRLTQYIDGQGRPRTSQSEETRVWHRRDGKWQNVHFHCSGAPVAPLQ
As to conditions: Protein CAMK2B; average of three replicates. An outline of the steps:
as §1

Test [5] concerns the target T5, ~100 representative kinases (Homo sapiens, UniProt O00444).
T5 construct: Recombinant protein kinase domains with a concentration of 2 μM
T5 sequence (O00444 1-970): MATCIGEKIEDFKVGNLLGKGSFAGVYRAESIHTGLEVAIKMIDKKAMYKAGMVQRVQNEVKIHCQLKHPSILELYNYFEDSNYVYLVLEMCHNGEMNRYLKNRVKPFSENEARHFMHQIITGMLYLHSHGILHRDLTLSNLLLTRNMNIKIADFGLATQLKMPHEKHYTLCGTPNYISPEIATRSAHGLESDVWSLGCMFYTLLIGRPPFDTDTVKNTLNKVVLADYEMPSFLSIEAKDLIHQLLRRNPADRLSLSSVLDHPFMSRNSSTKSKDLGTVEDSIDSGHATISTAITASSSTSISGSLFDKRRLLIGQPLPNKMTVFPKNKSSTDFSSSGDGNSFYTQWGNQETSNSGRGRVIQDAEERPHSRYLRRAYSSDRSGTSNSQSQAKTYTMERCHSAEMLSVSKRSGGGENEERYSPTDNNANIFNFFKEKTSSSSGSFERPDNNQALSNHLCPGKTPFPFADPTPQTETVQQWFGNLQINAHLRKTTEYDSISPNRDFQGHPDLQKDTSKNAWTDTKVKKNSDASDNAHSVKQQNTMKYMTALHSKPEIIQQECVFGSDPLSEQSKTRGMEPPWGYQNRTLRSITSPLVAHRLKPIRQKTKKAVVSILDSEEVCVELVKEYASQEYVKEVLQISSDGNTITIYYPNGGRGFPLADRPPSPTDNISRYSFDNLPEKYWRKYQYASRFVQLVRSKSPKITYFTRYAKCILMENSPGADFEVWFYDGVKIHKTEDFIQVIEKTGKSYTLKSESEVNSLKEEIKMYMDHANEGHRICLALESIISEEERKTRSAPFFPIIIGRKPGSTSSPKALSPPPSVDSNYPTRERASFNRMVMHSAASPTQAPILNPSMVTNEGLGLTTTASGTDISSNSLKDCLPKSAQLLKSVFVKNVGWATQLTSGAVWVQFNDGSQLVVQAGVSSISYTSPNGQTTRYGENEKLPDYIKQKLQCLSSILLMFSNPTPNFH
As to conditions: protein PLK4; average of three replicates. The essentials:
as §1

The target of test [6] is T6, ~100 representative kinases (Homo sapiens, UniProt P11309).
T6 construct: Recombinant protein kinase domains with a concentration of 2 μM
T6 sequence (P11309 whole entry, the tested form may be a part): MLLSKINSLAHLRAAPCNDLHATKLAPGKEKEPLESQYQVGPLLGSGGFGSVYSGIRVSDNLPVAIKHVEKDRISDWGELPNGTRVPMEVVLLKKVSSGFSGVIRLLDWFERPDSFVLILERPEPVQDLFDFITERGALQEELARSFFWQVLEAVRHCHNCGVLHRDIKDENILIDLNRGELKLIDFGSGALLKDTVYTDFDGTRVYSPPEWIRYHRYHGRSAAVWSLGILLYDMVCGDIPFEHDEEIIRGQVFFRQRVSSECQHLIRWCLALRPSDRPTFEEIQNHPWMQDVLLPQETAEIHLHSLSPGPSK
Particulars: protein PIM1; average of three replicates. The essentials: as §1

T1 sequence (P49759 whole entry, the tested form may be a part): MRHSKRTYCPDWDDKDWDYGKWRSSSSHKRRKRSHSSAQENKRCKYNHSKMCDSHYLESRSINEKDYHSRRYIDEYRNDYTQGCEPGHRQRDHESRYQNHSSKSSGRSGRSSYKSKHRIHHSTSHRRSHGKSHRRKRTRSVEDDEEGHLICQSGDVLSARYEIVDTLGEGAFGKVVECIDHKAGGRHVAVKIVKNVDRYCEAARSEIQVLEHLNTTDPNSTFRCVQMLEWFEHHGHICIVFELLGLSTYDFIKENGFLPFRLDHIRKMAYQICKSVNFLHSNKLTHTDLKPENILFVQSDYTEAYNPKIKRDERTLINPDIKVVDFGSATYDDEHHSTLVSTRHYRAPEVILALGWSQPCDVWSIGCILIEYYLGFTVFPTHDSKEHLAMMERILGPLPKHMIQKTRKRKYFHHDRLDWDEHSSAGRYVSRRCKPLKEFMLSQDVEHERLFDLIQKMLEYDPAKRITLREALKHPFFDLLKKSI

`Cc1ccc(C(=O)Nc2ccc(CN3CCN(C)CC3)c(C(F)(F)F)c2)cc1C#Cc1c[nH]c2ncnc(N3CCOCC3)c12` [Compound 1]: the dTm in test [1] is 8.76 K; in test [2], 4.12 K; in test [3] it was 3.91 K; in test [4], 0.49 K; in test [5] it was 6.48 K; in test [6], 1.54 K.

`O=C(Nc1ccc(F)cc1)C1(C(=O)Nc2cccc(-c3c[nH]c4ncnc(N5CCOCC5)c34)c2)CC1` [Compound 2]: the dTm is listed as 9.06 K in test [1]; 2.10 K in test [2]; 7.92 K in test [3]; 0.69 K in test [4]; 8.51 K in test [5]; 2.13 K in test [6].

Consider `O=C(Nc1cccc(-c2c[nH]c3ncnc(N4CCOCC4)c23)c1)c1cccn(-c2ccc(F)cc2)c1=O` [Compound 4], for which the dTm in test [1] stood at 9.53 K; in test [2] it was 2.61 K; in test [3], 6.24 K; in test [4] it was 0.73 K; in test [5], 8.52 K; in test [6], 0.92 K.

For the molecule `Cc1cc(NC(=O)C2(C(=O)Nc3ccc(F)cc3)CC2)cc(-c2c[nH]c3ncnc(N4CCOCC4)c23)c1` [Compound 6], the dTm is recorded as 4.67 K in test [1]; 2.49 K in test [2]; 5.04 K in test [3]; 1.87 K in test [4]; 7.27 K in test [5]; 1.27 K in test [6].

Regarding `O=C(Nc1cccc(-c2c[nH]c3ncnc(N4CCOCC4)c23)c1)C1(C(=O)Nc2cccc3c2CCC3)CC1` [Compound 11], the dTm in test [1] was 7.29 K; in test [2], 0.40 K; in test [3] it was 4.30 K; in test [4], 1.38 K; in test [5], 7.44 K; in test [6], 1.06 K.

As to `O=C(Nc1ccccc1)C1(C(=O)Nc2cccc(-c3c[nH]c4ncnc(N5CCOCC5)c34)c2)CC1` [Compound 12], the dTm is reported as 9.52 K in test [1]; 1.72 K in test [2]; 6.15 K in test [3]; 0.82 K in test [4]; 6.79 K in test [5]; 3.25 K in test [6].

On to `O=C(Nc1ccc(Cl)cc1)C1(C(=O)Nc2cccc(-c3c[nH]c4ncnc(N5CCOCC5)c34)c2)CC1` [Compound 13], for which the dTm in test [1] is on record as 9.39 K; in test [2], 4.09 K; in test [3], 9.27 K; in test [4] it was 1.60 K; in test [5], 9.01 K; in test [6], 4.69 K.

Consider `Cc1ccc(NC(=O)C2(C(=O)Nc3cccc(-c4c[nH]c5ncnc(N6CCOCC6)c45)c3)CC2)cc1` [Compound 14], for which the dTm in test [1] was 6.84 K; in test [2] it was 2.64 K; in test [3], 6.23 K; in test [4], 0.96 K; in test [5] it was 7.55 K; in test [6] it was 1.13 K.

Regarding `CCc1ccc(NC(=O)C2(C(=O)Nc3cccc(-c4c[nH]c5ncnc(N6CCOCC6)c45)c3)CC2)cc1` [Compound 15], the dTm in test [1] was 6.65 K; in test [2], 2.16 K; in test [3], 4.76 K; in test [4], 1.13 K; in test [5], 9.77 K; in test [6], 1.02 K.

`COc1ccc(NC(=O)C2(C(=O)Nc3cccc(-c4c[nH]c5ncnc(N6CCOCC6)c45)c3)CC2)cc1` [Compound 16]: the dTm in test [1] was 7.75 K; in test [2] it was -0.05 K; in test [3] it was 3.09 K; in test [4], 0.11 K; in test [5], 4.53 K; in test [6], -0.51 K.

As for `O=C(Nc1cccc(-c2c[nH]c3ncnc(N4CCOCC4)c23)c1)C1(C(=O)Nc2ccc(F)c(F)c2)CC1` [Compound 17], the dTm stood at 8.95 K in test [1]; 1.24 K in test [2]; 7.75 K in test [3]; 1.54 K in test [4]; 9.62 K in test [5]; 3.60 K in test [6].

For `O=C(Nc1cccc(-c2c[nH]c3ncnc(N4CCOCC4)c23)c1)C1(C(=O)Nc2ccc(F)c(Cl)c2)CC1` [Compound 18], the dTm in test [1] amounted to 9.40 K; in test [2] it was 1.94 K; in test [3], 9.51 K; in test [4], 2.15 K; in test [5] it was 7.28 K; in test [6], 5.41 K.

As to `O=C(Nc1cccc(-c2c[nH]c3ncnc(N4CCOCC4)c23)c1)C1(C(=O)Nc2ccc(F)c(Br)c2)CC1` [Compound 19], the dTm in test [1] amounted to 8.69 K; in test [2], 1.78 K; in test [3], 3.42 K; in test [4] it was 2.00 K; in test [5], 0.00 K; in test [6] it was 3.98 K.

In the case of `Cc1cc(NC(=O)C2(C(=O)Nc3cccc(-c4c[nH]c5ncnc(N6CCOCC6)c45)c3)CC2)ccc1F` [Compound 20], the dTm in test [1] was 11.22 K; in test [2] it was 3.23 K; in test [3], 10.73 K; in test [4], 1.78 K; in test [5] it was 12.28 K; in test [6], 5.73 K.

With `COc1cc(NC(=O)C2(C(=O)Nc3cccc(-c4c[nH]c5ncnc(N6CCOCC6)c45)c3)CC2)ccc1F` [Compound 21], the dTm in test [1] was 10.73 K; in test [2], 0.24 K; in test [3] it was 8.53 K; in test [4], 1.15 K; in test [5], 10.46 K; in test [6], 3.07 K.

`CC(C)(C)c1cccc(NC(=O)C2(C(=O)Nc3cccc(-c4c[nH]c5ncnc(N6CCOCC6)c45)c3)CC2)c1` [Compound 22]: the dTm in test [1] came to 7.58 K; in test [2] it was 2.71 K; in test [3], 5.80 K; in test [4], 2.01 K; in test [5] it was 9.02 K; in test [6], 4.89 K.

As for `O=C(Nc1cccc(-c2c[nH]c3ncnc(N4CCOCC4)c23)c1)C1(C(=O)Nc2ccc(F)cc2F)CC1` [Compound 23], the dTm was found to be 7.21 K in test [1]; 1.15 K in test [2]; 3.88 K in test [3]; 0.18 K in test [4]; 7.20 K in test [5]; 0.61 K in test [6].

As to `Cc1cc(F)ccc1NC(=O)C1(C(=O)Nc2cccc(-c3c[nH]c4ncnc(N5CCOCC5)c34)c2)CC1` [Compound 24], the dTm in test [1] was found to be 5.49 K; in test [2], 0.68 K; in test [3], 1.96 K; in test [4], 0.23 K; in test [5] it was 7.17 K; in test [6] it was 0.58 K.

On to `CN[C@@H]1C[C@H]2O[C@@](C)([C@@H]1OC)n1c3ccccc3c3c4c(c5c6ccccc6n2c5c31)C(=O)NC4` [Staurosporine], for which the dTm in test [2] turned out to be 6.68 K; in test [5], 19.68 K.
